Measured values published in PubChem BioAssay (NCI).
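Five compound concentrations were applied to cells in 96-well plates for 48 hours; endpoints were derived by simple linear interpolation of the resulting dose-response curve. GI50 is the concentration that inhibits growth by half. TGI marks complete inhibition of growth.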

Assays:
Test in all cases: NCI-60 cell line screen, 48 h
A498 renal = system: A498 renal
SNB-75 CNS = system: SNB-75 CNS
HOP-92 NSCLC = system: HOP-92 NSCLC
MDA-N = system: MDA-N
SN12C renal = system: SN12C renal
SF-268 CNS = system: SF-268 CNS
PC-3 prostate = system: PC-3 prostate
LOX IMVI melanoma = system: LOX IMVI melanoma
SW-620 colon = system: SW-620 colon
ACHN renal = system: ACHN renal
OVCAR-3 ovarian = system: OVCAR-3 ovarian
M14 melanoma = system: M14 melanoma
OVCAR-4 ovarian = system: OVCAR-4 ovarian
DU-145 prostate = system: DU-145 prostate
HCT-15 colon = system: HCT-15 colon
IGROV1 ovarian = system: IGROV1 ovarian
SF-295 CNS = system: SF-295 CNS
SK-MEL-5 melanoma = system: SK-MEL-5 melanoma
NCI-H23 lung = system: NCI-H23 lung

SMILES	TGI (A498 renal) [µM]	TGI (SNB-75 CNS) [µM]	TGI (HOP-92 NSCLC) [µM]	TGI (MDA-N) [µM]	TGI (SN12C renal) [µM]	TGI (SF-268 CNS) [µM]	TGI (PC-3 prostate) [µM]	TGI (LOX IMVI melanoma) [µM]	TGI (SW-620 colon) [µM]	TGI (ACHN renal) [µM]	TGI (OVCAR-3 ovarian) [µM]	TGI (M14 melanoma) [µM]	TGI (OVCAR-4 ovarian) [µM]	TGI (DU-145 prostate) [µM]	TGI (HCT-15 colon) [µM]	TGI (IGROV1 ovarian) [µM]	TGI (SF-295 CNS) [µM]	TGI (SK-MEL-5 melanoma) [µM]	TGI (NCI-H23 lung) [µM]	GI50 (HOP-92 NSCLC) [µM]
COc1c2c(cc3oc(C)cc(=O)c13)OC(=N)C(C(N)=O)C2CC(=O)c1ccc(N)cc1 (stereo not given)	> 100	> 100	> 100	> 100	> 100	> 100	> 100	> 100	> 100	> 100	> 100	> 100	> 100	> 100	> 100	> 100	> 100	> 100	–	–
COc1nc(N)c(NC2OC(CO)C(O)C2O)c(=O)[nH]1 (stereo not given)	> 100	> 100	> 100	> 100	> 100	> 100	> 100	> 100	> 100	> 100	> 100	> 100	> 100	> 100	> 100	> 100	> 100	> 100	> 100	–
COc1cc(OC)c(OC)cc1/C=N/N=C(\N)NO	> 100	93.5	> 100	> 100	> 100	> 100	> 100	> 100	> 100	> 100	> 100	> 100	> 100	> 100	> 100	> 100	> 100	> 100	> 100	–
COc1ccc(NC(=O)/C(=N\NC(=O)C[n+]2ccccc2)c2c(O)c3ccc(O)cc3oc2=O)c([N+](=O)[O-])c1	> 100	> 100	> 100	> 100	> 100	> 100	> 100	> 100	> 100	> 100	> 100	> 100	> 100	> 100	> 100	> 100	> 100	> 100	> 100	–
CC1(C)CS(=O)(=O)CC(C)(C)C(=N/N)/C1=N\N	> 100	> 100	> 100	> 100	> 100	> 100	> 100	> 100	> 100	> 100	> 100	> 100	> 100	> 100	> 100	> 100	> 100	> 100	> 100	–
O=C(NCCCCCCCCNC(=O)c1cc(-c2ccccc2)nc2ccccc12)c1cc(-c2ccccc2)nc2ccccc12	> 100	> 100	> 100	> 100	> 100	> 100	> 100	> 100	> 100	> 100	> 100	> 100	> 100	> 100	> 100	> 100	> 100	> 100	> 100	–
COC(=O)C1C(OC(=O)c2ccccc2)CC2CCC1N2C(N)=O (stereo not given)	> 100	> 100	> 100	> 100	> 100	> 100	> 100	> 100	> 100	> 100	> 100	> 100	> 100	> 100	> 100	> 100	> 100	> 100	> 100	–
COC(=O)c1ccc2c(O)c(O)ccc2c1	47.7	25.4	33.6	3.29	23	33.9	12.5	11.5	25.3	30.9	17	31	28.3	30.1	27.8	31.6	17.2	8.58	22.7	–
CCC1(CC)CC(=NNS(=O)(=O)c2ccc(C)cc2)C1	> 100	> 100	> 100	> 100	> 100	> 100	> 100	> 100	> 100	> 100	> 100	> 100	> 100	> 100	> 100	> 100	> 100	> 100	> 100	–
O=C(O[C@H]1[C@@H](O)[C@H](n2cnc3c(Cl)ncnc32)O[C@@H]1COC(c1ccccc1)(c1ccccc1)c1ccccc1)c1ccccc1	31	> 100	44.8	> 100	30.6	61.3	24.5	> 100	> 100	31	35	> 100	> 100	3.85	> 100	> 100	53.9	31.8	> 100	–
COc1ccc(NC(=O)CC(=O)N2N=C(C)C(N=Nc3ccc(S(=O)(=O)c4ccc(N=NC5C(=O)N(C(=O)CC(=O)Nc6ccc(OC)cc6)N=C5C)cc4)cc3)C2=O)cc1 (stereo not given)	> 100	> 100	> 100	> 100	> 100	> 100	> 100	> 100	> 100	> 100	> 100	> 100	> 100	> 100	> 100	> 100	> 100	> 100	> 100	–
CCC1C(c2cc(OC)c(OC)c(OC)c2)c2cc3c(cc2OC1N1CCCC1)OCO3 (stereo not given)	14	31.4	21.3	0.795	31.8	33	> 37.6	22	45.4	26.6	8.53	26.6	> 76	14.6	27.2	17.8	8.25	12.5	39	–
CN(C(=O)Cc1cc(Cl)c(Cl)cc1N=C=S)[C@H]1CCCC[C@@H]1N1CCCC1	27	27.9	21.9	28.1	30.3	31.4	26.3	13.3	23.6	28.7	29.6	29.6	26.3	27.8	29.1	28.1	31.9	27.8	30.5	–
Cc1n[nH]c(=O)c2cc(-c3ccccc3)[nH]c12	92.3	> 100	> 100	> 100	> 100	> 100	96.6	> 100	> 100	> 100	> 100	> 100	> 100	> 100	> 100	> 100	> 100	> 100	> 100	–
O=C(NCc1cccnc1)NCc1cccnc1	> 100	> 100	> 100	> 100	> 100	> 100	> 100	> 100	> 100	> 100	> 100	> 100	> 100	> 100	> 100	> 100	> 100	> 100	> 100	–
Fc1ccc2nc3n(c2c1)C(c1c(F)cccc1F)SC3 (stereo not given)	> 100	> 100	> 100	85.3	> 100	> 100	> 100	> 100	> 100	> 100	> 100	> 100	> 100	> 100	> 100	> 100	> 100	> 100	> 100	–
CCOC(=O)c1c(N2CCCC2)nsc1Nc1ccccc1	> 100	> 100	> 100	> 100	> 100	> 100	> 100	> 100	> 100	> 100	–	> 100	> 100	> 100	> 100	> 100	> 100	> 100	> 100	–
Cc1cc(=O)[nH]c(NN2C(Cl)C(=O)C2c2ccc(Cl)cc2)n1 (stereo not given)	53.6	42.5	27.7	72.6	35.7	> 66.2	> 100	15.1	> 71.7	> 56.4	30.3	28.9	> 64.7	66.6	> 53.8	15.1	> 100	25.7	39.1	–
CCC(NC(C)c1ccccc1)C(O)c1ccc(OCc2ccccc2)c(OCc2ccccc2)c1 (stereo not given)	39.1	23.2	16.7	30.3	29.5	36.4	27.4	26.3	20.3	32.2	25.6	16.3	33.5	32.1	29.9	33.9	35.4	14.4	31.6	–
CC(=O)OC1C(O)COC(O[C@H]2CC[C@]34C[C@]35CC[C@]3(C)C([C@@]6(C)CC[C@@H](C(C)(C)O)O6)[C@@H](O)C[C@@]3(C)C5C[C@H](OC3OCC(O)C(O)C3O)[C@H]4C2(C)C)C1OC1OCC(O)C(O)C1O (stereo not given in full)	> 100	> 100	> 100	> 100	> 100	> 100	> 100	> 100	> 100	> 100	> 100	> 100	> 100	> 100	> 100	> 100	> 100	> 100	> 100	–
COc1nc2c(c(=O)n1C)N(C(C)=O)C1C(N2)OCC(OC(C)=O)C1OC(C)=O (stereo not given)	> 10	> 10	> 10	> 10	> 10	> 10	> 10	> 10	> 10	> 10	> 10	> 10	> 10	> 10	> 10	> 10	> 10	> 10	> 10	–
C#CCOCC12C=CC(O1)C1C(=O)N(C)C(=O)C12 (stereo not given)	> 100	> 100	> 100	> 100	> 100	> 100	> 100	> 100	> 100	> 100	> 100	> 100	> 100	> 100	> 100	> 100	> 100	> 100	> 100	> 100
O=C(N=S(NC(=O)c1ccccc1)C(Cl)(Cl)Cl)c1ccccc1 (stereo not given)	76.2	> 100	> 100	> 100	56.2	> 100	> 100	39.3	15.9	47.5	> 77.7	30.7	38	> 100	27	> 49	> 59	20.5	30	–
N#C/C(=C\c1ccccc1)C(=O)Nc1nnc(-c2ccccc2)o1	72.7	> 100	> 100	> 100	> 100	> 100	> 100	> 100	> 100	> 100	66.3	> 100	> 100	> 100	> 100	> 100	> 100	38.3	> 100	–
